# Assay results: patent US11897865B2, “ABHD12 inhibitors and methods of making and using same” (THE SCRIPPS RESEARCH INSTITUTE, priority 2018, dated 2024)
# Target: T1, ABHD12 (Mus musculus, UniProt Q99LR1)
# T1 construct: from tissue; host or cells: brain membrane proteome
# T1 sequence (Q99LR1 1-398): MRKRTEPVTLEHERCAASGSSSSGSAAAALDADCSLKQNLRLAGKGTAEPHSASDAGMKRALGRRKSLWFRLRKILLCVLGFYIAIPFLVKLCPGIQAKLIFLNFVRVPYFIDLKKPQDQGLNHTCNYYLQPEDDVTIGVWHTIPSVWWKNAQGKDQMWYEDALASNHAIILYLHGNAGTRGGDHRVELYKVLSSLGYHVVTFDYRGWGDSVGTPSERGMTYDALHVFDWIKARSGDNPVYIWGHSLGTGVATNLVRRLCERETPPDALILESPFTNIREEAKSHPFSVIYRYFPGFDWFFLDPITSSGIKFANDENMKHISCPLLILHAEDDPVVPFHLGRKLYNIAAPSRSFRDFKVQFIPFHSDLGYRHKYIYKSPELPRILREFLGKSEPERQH
# Experiment: Gel-based competitive ABPP, JJH350 probe vs brain membrane proteome
# Assay type: biochemical
# Details: 10 μM compound, read-out: % Inhibition @ 10 μM (ABPP gel_JJH350 probe vs brain mem)
# Description: Gel-Based Competitive ABPP for In Vitro Inhibitor Treatment of Proteomes:
# Gel-based ABPP assays were performed as previously reported (Bachovchin, D. A. et al. Superfamily-wide portrait of serine hydrolase inhibition achieved by library-versus-library screening. Proc. Natl. Acad. Sci. U. S. A. 2010, 107, 20941-20946). Cell or tissue proteomes (50 μL, 1 mg/mL) were treated with either FP-Rh (1 μM final concentration) or JJH350 (2 μM final concentration) for 45 min at 37° C. For FP-Rh labeled samples, the reactions were quenched by adding 20 μL of 4× SDS-PAGE loading buffer. The 30 μL of the quenched samples were loaded on gel for analysis. For (S)-1,3-dioxo-7-(4-phenoxybenzoyl)hexahydroimidazo[1,5-a]pyrazin-2(3H)-yl 4-(4-(prop-2-yn-1-yloxy)phenyl)piperazine-1-carboxylate (JJH350)-labeled samples, copper-catalyzed azide-alkyne cycloaddition (CuAAC) was used for visualizing the labeled proteins following the reported protocol. Briefly, rhodamine-PEG3-N3 (1 μL/reaction, 1.25 mM in DMSO), CuSO4 (1 μL/reaction, 50 mM in H2O), TBTA (3 μL/reaction, 1.7 mM in DMSO/t-BuOH [1:4, v/v]) and tris(2-carboxyethyi)phosphine (TCEP) (1 μL/reaction, 50 mM in H2O, freshly prepared) were premixed. 6 μL of this click reagent mixture was immediately added to each JJH350-labeled samples (50 μL, 1 mg/mL) and incubated for 1 h at room temperature. The reactions were quenched by adding 20 μL of 4× SDS-PAGE loading buffer. The 40 μL of the quenched samples were loaded on a gel for analysis.
# After separation by SDS-PAGE (10% acrylamide), samples were visualized by in-gel fluorescence scanning using the ChemiDoc MP system (Bio-Rad). Band intensities were quantified using the Image Lab (5.2.1) software (Bio-Rad).
row,SMILES,inhibition at 10 µM
1,"FC(F)(F)c1cccc(Oc2ccnc(N3CCC(NC(=S)Nc4cccnc4)CC3)c2)c1 [Example 52, 1-(Pyridin-3-yl)-3-(1-(4-(3-(trifluoromethyl)phenoxy)pyridin-2-yl)piperidin-4-yl)thiourea]",≥ 75%
2,"FC(F)(F)Oc1ccc(-c2ccnc(N3CCC(NC(=S)Nc4cccnc4)CC3)c2)cc1 [Example 22, 1-(Pyridin-3-yl)-3-(1-(4-(4-(trifluoromethoxy)phenyl)pyridin-2-yl)piperidin-4-yl)thiourea]",≥ 75%
3,"Fc1cc(Oc2ccnc(N3CCC(NC(=S)Nc4cccnc4)CC3)c2)ccc1OC(F)(F)F [Example 56, 1-(1-(4-(3-Fluoro-4-(trifluoromethoxy)phenoxy)pyridin-2-yl)piperidin-4-yl)-3-(pyridin-3-yl)thiourea]",≥ 75%
4,"FC(F)(F)Oc1ccc(COc2ccnc(N3CCC(NC(=S)Nc4cccnc4)CC3)c2)cc1 [Example 39, 1-(Pyridin-3-yl)-3-(1-(4-((4-(trifluoromethoxy)benzyl)oxy)pyridin-2-yl)piperidin-4-yl)thiourea]",≥ 75%
5,"FC(F)(F)c1ccc(N2CCC(NC(=S)Nc3cccnc3)CC2)nn1 [Example 79, 1-(Pyridin-3-yl)-3-(1-(6-(trifluoromethyl)pyridazin-3-yl)piperidin-4-yl)thiourea]",0 to 25%
6,"O=C(Nc1cccnc1)NC1CCN(c2ncc(C(F)(F)F)cc2Cl)CC1 [Example 77, 1-(1-(3-Chloro-5-(trifluoromethyl)pyridin-2-yl)piperidin-4-yl)-3-(pyridin-3-yl)urea]",25 to 50%
7,"CC(C)OC(=O)N1CCC(Oc2ccnc(N3CCC(NC(=S)Nc4cccnc4)CC3)c2)CC1 [Example 36, Isopropyl 4-((2-(4-(3-(pyridin-3-yl)thioureido)piperidin-1-yl)pyridin-4-yl)oxy)piperidine-1-carboxylate]",50 to 75%
8,"Fc1ccc(N2CCC(NC(=S)Nc3cccnc3)CC2)nc1 [Example 12, 1-(1-(5-Fluoropyridin-2-yl)piperidin-4-yl)-3-(pyridin-3-yl)thiourea]",≥ 75%
9,"Fc1ccc(-c2ccnc(N3CCC(NC(=S)Nc4cccnc4)CC3)c2)cc1 [Example 47, 1-(1-(4-(4-Fluorophenyl)pyridin-2-yl)piperidin-4-yl)-3-(pyridin-3-yl)thiourea]",≥ 75%
10,"S=C(Nc1cccnc1)NC1CCN(c2cc(-c3ccccc3)ccn2)CC1 [Example 45, 1-(1-(4-Phenylpyridin-2-yl)piperidin-4-yl)-3-(pyridin-3-yl)thiourea]",25 to 50%
11,"FC(F)(F)c1ccccc1Oc1ccnc(N2CCC(NC(=S)Nc3cccnc3)CC2)c1 [Example 53, 1-(Pyridin-3-yl)-3-(1-(4-(2-(trifluoromethyl)phenoxy)pyridin-2-yl)piperidin-4-yl)thiourea]",≥ 75%
12,"FC(F)(F)c1cc(Cl)cnc1N1CCC(NC(=S)Nc2cccnc2)CC1 [Example 18, 1-(1-(5-Chloro-3-(trifluoromethyl)pyridin-2-yl)piperidin-4-yl)-3-(pyridin-3-yl)thiourea]",≥ 75%
13,"COc1ccnc(N2CCC(NC(=S)Nc3cccnc3)CC2)c1 [Example 44, 1-(1-(4-Methoxypyridin-2-yl)piperidin-4-yl)-3-(pyridin-3-yl)thiourea]",50 to 75%
14,"FC(F)(F)c1cnc(NCCCCCCNC(=S)Nc2cccnc2)c(Cl)c1 [Example 84, 1-(6-((3-Chloro-5-(trifluoromethyl)pyridin-2-yl)amino)hexyl)-3-(pyridin-3-yl)thiourea]",50 to 75%
15,"Fc1ccc(COc2ccnc(N3CCC(NC(=S)Nc4cccnc4)CC3)c2)cc1F [Example 42, 1-(1-(4-((3,4-Difluorobenzyl)oxy)pyridin-2-yl)piperidin-4-yl)-3-(pyridin-3-yl)thiourea]",≥ 75%
16,"FC(F)(F)c1cnc(NCCCCCNC(=S)Nc2cccnc2)c(Cl)c1 [Example 81, 1-(5-((3-Chloro-5-(trifluoromethyl)pyridin-2-yl)amino)pentyl)-3-(pyridin-3-yl)thiourea]",≥ 75%
17,"FC(F)(F)CCCOc1ccnc(N2CCC(NC(=S)Nc3cccnc3)CC2)c1 [Example 34, 1-(Pyridin-3-yl)-3-(1-(4-(4,4,4-trifluorobutoxy)pyridin-2-yl)piperidin-4-yl)thiourea]",≥ 75%
18,"FC(F)(F)c1cnc(N2CCC(NC(=S)Nc3ccccc3)CC2)c(Cl)c1 [Example 9, 1-(1-(3-Chloro-5-(trifluoromethyl)pyridin-2-yl)piperidin-4-yl)-3-phenylthiourea]",≥ 75%
19,"Fc1ccc(COc2ccnc(N3CCC(NC(=S)Nc4cccnc4)CC3)c2)cc1 [Example 38, 1-(1-(4-((4-Fluorobenzyl)oxy)pyridin-2-yl)piperidin-4-yl)-3-(pyridin-3-yl)thiourea]",≥ 75%
20,"FC(F)(F)Oc1ccc(N2CCC(NC(=S)Nc3cccnc3)CC2)nc1 [Example 13, 1-(Pyridin-3-yl)-3-(1-(5-(trifluoromethoxy)pyridin-2-yl)piperidin-4-yl)thiourea]",≥ 75%
21,"S=C(Nc1cccnc1)NC1CCN(c2cc(OC3CCCCC3)ccn2)CC1 [Example 30, 1-(1-(4-(Cyclohexyloxy)pyridin-2-yl)piperidin-4-yl)-3-(pyridin-3-yl)thiourea]",≥ 75%
22,"FC(F)(F)c1cnc(NCCCCNC(=S)Nc2cccnc2)c(Cl)c1 [Example 83, 1-(4-((3-Chloro-5-(trifluoromethyl)pyridin-2-yl)amino)butyl)-3-(pyridin-3-yl)thiourea]",25 to 50%
23,"Fc1ccc(OC(F)(F)F)cc1Oc1ccnc(N2CCC(NC(=S)Nc3cccnc3)CC2)c1 [Example 58, 1-(1-(4-(2-Fluoro-5-(trifluoromethoxy)phenoxy)pyridin-2-yl)piperidin-4-yl)-3-(pyridin-3-yl)thiourea]",≥ 75%
24,"S=C(Nc1cccnc1)NC1CCN(c2ccc(Cl)cn2)CC1 [Example 11, 1-(1-(5-Chloropyridin-2-yl)piperidin-4-yl)-3-(pyridin-3-yl)thiourea]",≥ 75%
25,"FC(F)Oc1ccc(Oc2ccnc(N3CCC(NC(=S)Nc4cccnc4)CC3)c2)cc1 [Example 62, 1-(1-(4-(4-(Difluoromethoxy)phenoxy)pyridin-2-yl)piperidin-4-yl)-3-(pyridin-3-yl)thiourea]",≥ 75%

# Same assay, conditions: at 2 uM compound
row,SMILES,"% Inhibition (ABPP gel_JJH350 probe vs brain mem), at 2 uM"
1,"C#Cc1ccc(N2CCC(NC(=S)Nc3cccnc3)CC2)nc1 [Example 10, 1-(1-(5-Ethynylpyridin-2-yl)piperidin-4-yl)-3-(pyridin-3-yl)thiourea]",C (at 2 uM) (% inhibition is greater than or equal to 25% and less than 50%)

# Same assay, conditions: read-out: IC50 (ABPP gel_JJH350 probe vs brain mem)
row,SMILES,IC50
1,"O=C(Nc1cccnc1)NC1CCN(c2nccc(Oc3ccc(OC(F)(F)F)cc3Cl)c2Cl)CC1 [Example 6, 1-(1-(3-Chloro-4-(2-chloro-4-(trifluoromethoxy)phenoxy)pyridin-2-yl)piperidin-4-yl)-3-(pyridin-3-yl)urea]",100 to 1000 nM
2,"S=C(Nc1cccnc1)NC1CCN(c2cc(-c3ccccc3)ccn2)CC1 [Example 45, 1-(1-(4-Phenylpyridin-2-yl)piperidin-4-yl)-3-(pyridin-3-yl)thiourea]",1000 to 25000 nM
3,"COc1ccnc(N2CCC(NC(=S)Nc3cccnc3)CC2)c1 [Example 44, 1-(1-(4-Methoxypyridin-2-yl)piperidin-4-yl)-3-(pyridin-3-yl)thiourea]",1000 to 25000 nM
4,"Fc1ccc(Oc2ccnc(N3CCC(NC(=S)Nc4cccnc4)CC3)c2Cl)cc1OC(F)(F)F [Example 68, 1-(1-(3-Chloro-4-(4-fluoro-3-(trifluoromethoxy)phenoxy)pyridin-2-yl)piperidin-4-yl)-3-(pyridin-3-yl)thiourea]",≤ 100 nM
5,"S=C(Nc1cccnc1)NC1CCN(c2cc(OC3CCCCC3)ccn2)CC1 [Example 30, 1-(1-(4-(Cyclohexyloxy)pyridin-2-yl)piperidin-4-yl)-3-(pyridin-3-yl)thiourea]",1000 to 25000 nM
6,"Cc1cc(F)ccc1Oc1ccnc(N2CCC(NC(=S)Nc3cccnc3)CC2)c1Cl [Example 69, 1-(1-(3-Chloro-4-(4-fluoro-2-methylphenoxy)pyridin-2-yl)piperidin-4-yl)-3-(pyridin-3-yl)thiourea]",100 to 1000 nM
7,"FC(F)(F)Oc1cc(Oc2ccnc(N3CCC(NC(=S)Nc4cccnc4)CC3)c2Cl)ccc1Cl [Example 63, 1-(1-(3-Chloro-4-(4-chloro-3-(trifluoromethoxy)phenoxy)pyridin-2-yl)piperidin-4-yl)-3-(pyridin-3-yl)thiourea]",≤ 100 nM
8,"Cc1cc(Oc2ccnc(N3CCC(NC(=S)Nc4cccnc4)CC3)c2Cl)ccc1F [Example 70, 1-(1-(3-Chloro-4-(4-fluoro-3-methylphenoxy)pyridin-2-yl)piperidin-4-yl)-3-(pyridin-3-yl)thiourea]",100 to 1000 nM
